The values that follow come from US11103526B2, “Methods for treatment using small molecule potassium-sparing diuretics and natriuretics” (University of Pittsburgh—Of the Commonwealth System of …, priority 2016, dated 2021).

In test [1] the test system is Dahl salt-sensitive rats (Dahl SS). The test is described as follows: Survival of Dahl SS on high-salt diet. It counts as in vivo. The conditions noted are these: for median survival time: 10 mg/kg/day beginning 23 days before high-salt (8% NaCl) diet, control 70 days; for hemiparalysis before death / increase in lifespan: 10 mg/kg/day; for hemiparalysis before death: high-salt diet; for increase in lifespan: versus control group on high-salt diet. Here is the method: This example describes the long-term effects of 8-aminoguanine (FIG. 15A) and 8-aminoguanosine (FIG. 15B) on survival in Dahl salt-sensitive rats (Dahl SS). Dahl SS are a well-established model of salt-sensitive hypertension. The control group of Dahl SS received only normal drinking water; whereas the treatment group received 8-aminoguanine or 8-aminoguanosine (10 mg/kg/day) beginning 23 days before starting a high-salt (8% NaCl) diet and continuing until all animals expired. The control group was also provided a high-salt diet at the same time as the treated group. FIGS. 15A-15B show survival curves for the control group versus the 8-aminoguanine-treated group or 8-aminoguanosine-treated group.

The next test concerns Dahl SS. As to the kind of experiment: MRI analysis of strokes in Dahl SS. The conditions noted are these: 8% salt diet, 10 mg/kg/day in drinking water, after 40 days. It counts as in vivo, Dahl salt-sensitive rats. The text has this: This example describes an MRI analysis of strokes in Dahl SS (FIG. 16). Six-week-old Dahl SS were purchased from Charles River. When animals arrived, they were divided into 4 groups. Group A is the normal control group in which the Dahl SS were maintained on a 0.3% salt diet for the entire study. Group B is the positive control group in which the Dahl SS were maintained on an 8% salt diet for the entire study. Group C is the 8-aminoguanosine group in which Dahl SS were maintained on an 8% salt diet with 10 mg/kg/day of 8-aminoguanosine in their drinking water for the entire study. Group D is the 8-aminoguanine group in which the Dahl SS were maintained on an 8% salt diet with 10 mg/kg/day of 8-aminoguanine in their drinking water for the entire study. After 40 days of treatment, the rats were transported to an MRI facility for T2-weighted MRI of the brain.

Another test deals with anesthetized rats. The test is described as follows: Acute cardiovascular and renal effects of an intravenous bolus in anesthetized rats (Example 1). It counts as in vivo, male Sprague-Dawley rats. The conditions noted are these: 33.5 μmoles/kg intravenous bolus; for urine volume increase: Period 3 (85-115 min) compared with Period 1 (0-30 min); for glucose excretion increase / potassium excretion decrease / sodium excretion increase: Period 3 compared with Period 1. Here is the method: Animals. This study employed male Sprague-Dawley rats (Charles River; Wilmington, Mass.) that were approximately 16 weeks old. The Institutional Animal Care and Use Committee approved all procedures.
The rats were anesthetized with Inactin (90 mg/kg, i.p.) and placed on an isothermal pad, and body temperature was monitored with a rectal probe thermometer and maintained at 37° C. with a heat lamp. […] A PE-50 cannula was inserted into the jugular vein, and an infusion of 0.9% saline at 25 μl/min was initiated. A PE-10 tubing was placed in the left ureter for urine collection. […] The dose was selected based on preliminary experiments with 8-aminoguanosine. […] Each group of rats (n of at least 6) received only one treatment. Ten minutes after the test agents were administered, urine was collected for another 30 minutes (Period 2: […] into the protocol).
Statistics. Absolute values are presented as the mean±SEM. Fold-increases were calculated as follows: Period 3 value÷Period 1 value. Statistical analyses were performed using analysis of variance (ANOVA) followed by Fisher's Least Significant Difference (LSD) test if the overall effects or interactions in the ANOVA were significant. P<0.05 was considered statistically significant.

The test system of the next test is DOCA-salt hypertension. As to the kind of experiment: DOCA-salt hypertension, long-term MABP by radiotelemetry. It counts as in vivo, rats. The conditions noted are these: for development of DOCA-salt hypertension / basal MABP: 5 mg/kg/day; for development of DOCA-salt hypertension: initiated 13 days before inducing DOCA-salt hypertension; for basal MABP: pretreatment 13 days before inducing DOCA-salt hypertension. How it is done: This example describes the effects of 8-aminoguanosine and 8-aminoguanine on DOCA-salt hypertension. Rats were instrumented for long-term and continuous measurement of arterial blood pressure by radiotelemetry as recently described (Jackson E K et al., Hypertension, 65:238-249, 2015). After at least 20 days of from the time of radiotransmitter implantation, hypertension was induced in the animals by removing one kidney, subcutaneously administering deoxycorticosterone acetate (30 mg/kg twice weekly), and providing 1% NaCl as drinking water (i.e., DOCA-salt hypertension). At this time, some animals were also randomized to receive either drinking water without 8-aminoguanosine or drinking water containing 8-aminoguanosine (10 mg/kg/day). In two other experiments, 8-aminoguanosine ([…]) or 8-aminoguanine (5 mg/kg/day) was administered 13 days before DOCA-salt hypertension was induced.
Results. Three studies were conducted to assess the effects of 8-aminoguanosine and 8-aminoguanine on DOCA-salt hypertension. In one study, DOCA-salt hypertension was induced at the same time that treatment with 8-aminoguanosine (10 mg/kg/day) was initiated. In two other studies, treatment with 8-aminoguanosine (5 mg/kg/day) or 8-aminoguanine (5 mg/kg/day) was initiated 13 days before inducing DOCA-salt hypertension. Treatments were maintained for the duration of the studies, and the MABP was continuously monitored by radiotelemetry. As shown in FIGS. 10A-10C, 8-aminoguanosine at 10 mg/kg/day prevented DOCA-salt hypertension.

For test [2], the system named is obese Zucker Diabetic Sprague Dawley rats (ZDSD). As to the kind of experiment: Long-term MABP in obese Zucker Diabetic Sprague Dawley rats. It counts as in vivo. The conditions noted are these: 10 mg/kg/day in drinking water; also with 1% salt and diabetogenic diet. The text has this:
This example describes the long-term effects of 8-aminoguanine (FIG. 14A) and 8-aminoguanosine (FIG. 14B) on mean arterial blood pressure (MABP) in obese Zucker Diabetic Sprague Dawley rats (ZDSD). Obese ZDSD are a recently developed model (developed by PreClinOmics) of metabolic syndrome that have a mild elevation of MABP and have dyslipidemia, diabetes, and obesity. All animals were instrumented for long-term measurement of MABP by radiotelemetry as previously described (Jackson E K et al., Hypertension, 65:238-249, 2015). Group 1 ZDSD received only normal drinking water, whereas Group 2 received normal drinking water for 7 days and then were provided drinking water containing 8-aminoguanine or 8-aminoguanosine (10 mg/kg/day) for the remainder of the study. The experiment was divided into three phases (indicated by the boxes). During phase 1, no other treatments were provided. During phase 2, all animals received 1% salt (NaCl) in their drinking water. During phase 3, all animals were provided (in addition to 1% salt in the drinking water) a diabetogenic diet to worsen diabetes. The numbers in each box are the average MABP in Group 2 versus Group 1 during the time period indicated by the box. P-values comparing Group 2 versus Group 1 during each phase of the experiment are also provided.

In the case of `Nc1nc2[nH]c(N)nc2c(=O)[nH]1` [8-aminoguanine, 8-Aminoguanine], in test [1], the median survival time is listed as 108 days, the hemiparalysis before death entry is on record as “did not exhibit hemiparalysis” and the increase in lifespan was 54%. The “stroke detected by T2-weighted MRI of the brain” value in the test on Dahl SS is “protect against strokes”. In the test with anesthetized rats, the “effect on heart rate (HR)” value is reported as “did not affect”, the “effect on mean arterial blood pressure (MABP)” value is reported as “did not affect”, the “effect on mesenteric blood flow (MBF)” value is recorded as “did not affect” and the “effect on renal blood flow (RBF)” value was “did not affect”. Further, in the test with anesthetized rats, the urine volume increase was found to be 3.6 fold, the glucose excretion increase came out at 12.2 fold, the potassium excretion decrease was determined as 71.0% and the sodium excretion increase amounted to 17.2 fold. Moreover, in the test on DOCA-salt hypertension, the “development of DOCA-salt hypertension” value is reported as “markedly attenuated” and the “basal MABP” value is listed as “did not affect”. The “MABP in metabolic syndrome (obese ZDSD)” value in test [2] is on record as “decrease MABP”.

On to `Nc1nc2c(nc(N)n2[C@@H]2O[C@H](CO)[C@@H](O)[C@H]2O)c(=O)[nH]1` [8-aminoguanosine, 8-Aminoguanosine], for which, in test [1], the median survival time is on record as 108 days, the hemiparalysis before death result is “did not exhibit hemiparalysis” and the increase in lifespan is 54%. Besides, the “stroke detected by T2-weighted MRI of the brain” value in the test with Dahl SS is given as “protect against strokes”. Also, in the test on anesthetized rats, the “effect on heart rate (HR)” value is on record as “did not affect”, the “effect on mean arterial blood pressure (MABP)” value is reported as “did not affect”, the “effect on mesenteric blood flow (MBF)” value was “modestly increased” and the “effect on renal blood flow (RBF)” value is recorded as “decreased”. In the test on anesthetized rats, the urine volume increase is 4.2 fold, the glucose excretion increase is given as 12.1 fold, the potassium excretion decrease is 69.1% and the sodium excretion increase is recorded as 26.6 fold. Also, in the test with DOCA-salt hypertension, the “development of DOCA-salt hypertension” value was “markedly attenuated” and the “basal MABP” value was “did not affect”. Also, the “DOCA-salt hypertension (MABP)” value with DOCA-salt hypertension (10 mg/kg/day in drinking water, started when hypertension was induced) was “prevented”. Besides, the “MABP in metabolic syndrome (obese ZDSD)” value in test [2] is reported as “decrease MABP”.
